Source: patent EP0535528A1, “Antibacterial 5-Nitro-1-methyl-imidazolyl-3-terbutyl-2-hydroxy-aryl-carbinols” (EURORESEARCH S.r.L., priority 1991, dated 1993)
Converted amounts (≈) assume the structure as drawn. Like-named read-outs stand apart in the source and are kept apart here.

Experiments:
[1] = solubility of the isolated product; assay type: physicochemical
[2] = Oral and intraperitoneal acute toxicity in mice (LD50, Probits method); assay type: in vivo; settings: mouse, in vivo, Swiss female mice, 14 days observation
Procedure: (§1) 20 Swiss female albino mice are used for this test of the average weight of 20 g (±2), coming from Nossan breeding .
(§2) Cages: in Makrolon® with saw dust litter, Number of animals per cage: 5 Acclimation period: 1 week Temperature: 22°C (± 2°C) Humidity : 60%, Diet: pellets for mice produced by Nossan firm, Water ad libitum Fast before the treatment: 16 hours
(§3) Oral by gastric route and intraperitoneal.
(§4) The substances to be studied: EU11100, EU11102, EU11103, EU11104 are treated with 0.5% carboxymethylcellulose in spring water, for the oral administration, whereas the same substances are intraperitoneally administered in the form of a physiological solution .
(§5) For each of the above mentioned substances, a mother suspension is prepared having a concentration in the active ingredient of 250 mg/ml for the oral administration, and analogously a mother suspension is prepared for the intraperitoneal administration having a concentration of the desired active principle of 100 mg/ml.
(§6) The following doses are used • a) oral route: 5000 mg/kg • b) intraperitoneal route : 2000 mg/kg
(§7) If mortality is observed at the above mentioned doses, other doses are administered in order to obtain a dose-response curve.
(§8) 5 animals are used for every utilized concentration.
(§9) After the administration of the above substances the animals are kept under observation for 14 days , during which the mortality and the behaviour is observed.
(§10) LD₅₀ is determined on the base of the cumulative mortality observed in the successive 14 days after the administration by using the Probits method.

Swiss female albino mice = assay: as above; assay type: in vivo; settings: for Mortality per day: 5 animals; for mortality: intraperitoneal
Procedure: as §1, §2, §3, §4, §5, §6, §7, §8, §9, §10

Helicobapter pylori = assay: Minimal inhibiting concentration (agar dilution); assay type: cell-based
Procedure: Substances under examination: EU11100, EU11102, EU11103, EU11104. Comparison substance: Metronidazole Solubilization of the substances: All the substances to be studied are dissolved at room temperature in DMSO. […] 10 strains of Helicobapter pylori are used of recent clinical isolation […] The sowing of the bacteria, prepared as described in the preceding test is carried out by means a "multi-point inoculator". After 48 hours incubation under the condition described in the preceding test, the plates are examined and the Minimal Inhibiting Concentration is evaluated, namely that dose corresponding to growth absence.

Salmonella typhimurium = assay: Ames test, mutagenic activity; assay type: cell-based
[3] = Direct mutation test (16 h treatment in the growth step); assay type: cell-based
Procedure: The tests are carried out on the compound EU11100 with or without metabolic activity for a treatment period of 16 h in the growth step. The used concentrations are 0.25-0.50 mg/ml without metabolic activation and 0.075-0.150 mg/ml with metabolic activation.

[4] = section A (without), 0.25 mg/ml
[5] = section A (without), 0.50 mg/ml

Structure (SMILES): COc1cc(C(O)c2ncc([N+](=O)[O-])n2C)c(O)c(C(C)(C)C)c1 (stereo not drawn) [EU11100, 5-nitro-1-methyl-imidazolyl-3-terbutyl-2-hydroxy-5-methoxy-phenyl-carbinol]
- solubility [1]: Soluble in CH₃OH, benzene, acetone, ethyl ether; insoluble in water and ligroin.
- LD50 at 336 h ([2]; po, per os, read-out: LD50 os): > 5000 mg/kg
- LD50 at 336 h ([2]; ip, read-out: LD50 i.p.): 890 mg/kg
- LD50 i.p. (Swiss female albino mice; Swiss female mice, ip, 14 days observation, 20160 min): LD50 i.p.= 890 mg/Kg (confidence limits: 781 - 1014)
- Observation on the behaviour (Swiss female albino mice; ip, 500 mg/Kg): 500 mg/Kg: no alteration
- Mortality per day (Swiss female albino mice; ip, 500 mg/Kg, day 1): 0
- Observation on the behaviour (Swiss female albino mice; ip, 750 mg/Kg): 750 mg/Kg: motor activity reduction
- Mortality per day (Swiss female albino mice; ip, 750 mg/Kg, day 1): 1
- Mortality per day (Swiss female albino mice; ip, 1000 mg/Kg, day 1): 3
- Mortality per day (Swiss female albino mice; ip, 1500 mg/Kg, day 1): 5
- Mortality per day (Swiss female albino mice; ip, 2000 mg/Kg, day 1): 5
- Death within (time) (Swiss female albino mice; ip, doses 2000 - 1500 - 1000 mg/Kg): 6 to 24 h
- Observation on the behaviour (Swiss female albino mice; ip, doses 2000 - 1500 - 1000 mg/Kg, after 15-30'): considerable behaviouristic alteration, such as the loss of body-righting reflex
- Observation on the behaviour (Swiss female albino mice; ip, doses 2000 - 1500 - 1000 mg/Kg, after 15-30', listed as EU 11100): considerable reduction motor activity and subsequent loss of body righting reflex
- mortality (Swiss female albino mice; mice, 1500 mg/kg): 100%
- mortality (Swiss female albino mice; mice, 2000 mg/kg): 100%
- toxicity when intraperitoneally administered (Swiss female albino mice; mice, intraperitoneal, 2000, 1500 and 1000 mg/kg): toxic
- toxicity when orally administered (Swiss female albino mice; mice, oral, 5000 mg/kg): not toxic
- Observation on the behaviour (Swiss female albino mice; os, 5000 mg/Kg): No alteration
- Mortality per day (Swiss female albino mice; os, 5000 mg/Kg, day 1): 0
- Mortality per day (Swiss female albino mice; os, 5000 mg/Kg, day 2): 0
- Mortality per day (Swiss female albino mice; os, 5000 mg/Kg, day 3): 0
- Mortality per day (Swiss female albino mice; os, 5000 mg/Kg, day 4): 0
- Mortality per day (Swiss female albino mice; os, 5000 mg/Kg, day 5): 0
- Mortality per day (Swiss female albino mice; os, 5000 mg/Kg, day 6): 0
- Mortality per day (Swiss female albino mice; os, 5000 mg/Kg, day 7): 0
- Mortality per day (Swiss female albino mice; os, 5000 mg/Kg, day 8): 0
- Mortality per day (Swiss female albino mice; os, 5000 mg/Kg, day 9): 0
- Mortality per day (Swiss female albino mice; os, 5000 mg/Kg, day 10): 0
- Mortality per day (Swiss female albino mice; os, 5000 mg/Kg, day 11): 0
- Mortality per day (Swiss female albino mice; os, 5000 mg/Kg, day 12): 0
- Mortality per day (Swiss female albino mice; os, 5000 mg/Kg, day 13): 0
- Mortality per day (Swiss female albino mice; os, 5000 mg/Kg, day 14): 0
- MIC50 (Helicobapter pylori; 10 strains): 0.03 mg/L (≈ 0.0895 µM)
- MIC90 (Helicobapter pylori; 10 strains): 0.06 mg/L (≈ 0.179 µM)
- MIC range (Helicobapter pylori; 10 strains): 0.015 to 0.016 mg/L
- MIC values (Helicobapter pylori; in words, compared with Metronidazole): very low MIC values
- MIC (Helicobapter pylori; strain 1): 0.12 mg/L (≈ 0.358 µM)
- MIC (Helicobapter pylori; strain 2): 0.03 mg/L (≈ 0.0895 µM)
- MIC (Helicobapter pylori; strain 3): 0.03 mg/L (≈ 0.0895 µM)
- MIC (Helicobapter pylori; strain 4): 0.03 mg/L (≈ 0.0895 µM)
- MIC (Helicobapter pylori; strain 5): 0.015 mg/L (≈ 0.0447 µM)
- MIC (Helicobapter pylori; strain 6): 0.03 mg/L (≈ 0.0895 µM)
- MIC (Helicobapter pylori; strain 7): 0.06 mg/L (≈ 0.179 µM)
- MIC (Helicobapter pylori; strain 8): 0.03 mg/L (≈ 0.0895 µM)
- MIC (Helicobapter pylori; strain 9): 0.03 mg/L (≈ 0.0895 µM)
- MIC (Helicobapter pylori; strain 10): 0.03 mg/L (≈ 0.0895 µM)
- toxicity to the Salmonella strains (Salmonella typhimurium; 1000 µg/capsule, in the absence of metabolic activation): toxic
- mutagenic activity (Salmonella typhimurium; general statement): practically no mutagenic activity
- doubling of the base value (Salmonella typhimurium; strain TA-100, without metabolic activation, 500 µg/capsule): 1.95 times
- signal in other strains (Salmonella typhimurium; strains other than TA-100, without metabolic activation): do not give rise to any particular signal
- spontaneous reversion of Salmonella (Salmonella typhimurium; with metabolic activation, 250, 500 and 1000 µg/capsule): does not increase the spontaneous reversion of Salmonella
- Frequency of: Mutation [3, 4]: 1.60
- Survival (%) [3, 4]: 71.1%
- Frequency of: Mutation [3, 5]: 0.00
- Survival (%) [3, 5]: 36.4%
- Frequency of: Mutation ([3]; section B (with), 0.075 mg/ml): 2.11
- Survival (%) ([3]; section B (with), 0.075 mg/ml): 89.9%
- Frequency of: Mutation ([3]; section B (with), 0.150 mg/ml): 3.22
- Survival (%) ([3]; section B (with), 0.150 mg/ml): 29.5%
